From ChEMBL document CHEMBL1146044, “Synthesis, enzymatic inhibition, and cancer cell growth inhibition of novel delta-lactam-based histone deacetylase (HDAC) inhibitors” (Bioorg Med Chem Lett, 2006)
Active and inactive are the calls of the source. No cut-off for these calls is given here.

Experiments:
Assay type in all cases: functional
MDA-MB-231 = experiment: Antiproliferative activity against human MDA-MB-231 cells by SRB assay
HCT-15 = experiment: Antiproliferative activity against human HCT15 cells by SRB assay
PC-3 = experiment: Antiproliferative activity against human PC3 cells by SRB assay
ACHN = experiment: Antiproliferative activity against human ACHN cells by SRB assay
LOX IMVI = experiment: Antiproliferative activity against human LOX-IMVI cells by SRB assay
NCI-H23 = experiment: Antiproliferative activity against human NCI-H23 cells by SRB assay

O=C(CCCCCCC(=O)Nc1ccccc1)NO [VORINOSTAT]
GI50 (MDA-MB-231): 0.66 µM | GI50 (HCT-15): 0.82 µM

C=CCN1CCC=C(CCC(=O)NO)C1=O
GI50 (PC-3): inactive

O=C(CCC1=CCCN(Cc2ccccc2)C1=O)NO
GI50 (ACHN): > 10 µM | GI50 (LOX IMVI): > 10 µM | GI50 (NCI-H23): > 10 µM | GI50 (PC-3): > 10 µM | GI50 (HCT-15; Homo sapiens, HCT-15): > 10 µM

COc1ccc(CN2CCC=C(CCC(=O)NO)C2=O)c(OC)c1
GI50 (NCI-H23): > 10 µM

O=C(CCC1=CCCN(CCc2ccccc2)C1=O)NO
GI50 (NCI-H23): > 10 µM
